Assay results reported in patent US20050119338A1, “Combination of cytochome p450 dependent protease inhibitors” (priority 2001, published 2005).

How the values were obtained:
[1] = tested on: HIV-1/LAI infected MT4 cells; format: cell-based; conditions: in combination with the compound of formula (4); three molar ratios; mean of three experiments
Procedure: In general, combinations of two compounds can act synergistically, in an additive way or antagonistically. […] For the current invention, this was assessed in an experimental setting where the potency of different ratios of the two HIV-protease inhibitors is measured. Results were plotted in an isobologram graph according to the method described by Chou and Talalay (Adv. Enzyme Regul. 22: 27-55, 1984).
The results were analyzed according to the isobologram method described by Chou and Talalay (1984).
The results are presented as the mean of three separate experiments. The combination index (CI) for each combination was determined.

[2] = Safety and tolerability (adverse events, maculopapular rash) in clinical testing
[3] = Influence of ritonavir on the pharmacokinetics of a single dose of the compound of formula (4); conditions: human, in vivo; for AUC: mean ± SD
[4] = Panel E (1200 mg/200 mg RTV o.d.)

For `Cc1c(O)cccc1C(=O)N[C@@H](CSc1ccccc1)[C@H](O)CN1C[C@H]2CCCC[C@H]2C[C@H]1C(=O)NC(C)(C)C` [nelfinavir], the “combination index (CI)” value [1] was 0.61-0.80.

For `CC(C)(C)NC(=O)[C@@H]1CN(Cc2cccnc2)CCN1C[C@@H](O)C[C@@H](Cc1ccccc1)C(=O)N[C@H]1c2ccccc2C[C@H]1O` [indinavir], the “combination index (CI)” value [1] was 0.87-0.92.

With `CC(C)CN(C[C@@H](O)[C@H](Cc1ccccc1)NC(=O)O[C@H]1CO[C@H]2OCC[C@H]21)S(=O)(=O)c1ccc(N)cc1` [compound of formula (4), carbamic acid [(1S,2R)-3-[[(4-aminophenyl)sulfonyl](2-methylpropyl)amino]-2-hydroxy-1-(phenylmethyl)propyl]-(3R,3aS,6aR)hexahydrofuro[2,3-b]furan-3-yl ester] the “subjects who developed maculopapular rash” value ([2]; 1200 mg t.i.d. alone) was 4 out of 6, the “itching of the body and/or redness of the skin” value [2, 4] was “two other volunteers” and the maculopapular rash [2, 4] was “one volunteer with a clear maculopapular rash”. For the same compound, the maculopapular rash ([2]; volunteers in panels A to D (with ritonavir)) was “No maculopapular rash was observed”, the Tmax [3] was 60 min and the Tmax ([3]; 800 mg) was 48 min. The AUC ([3]; 800 mg, Session I: single 800 mg dose alone) was 10700 ± 3130 ng·h/mL and the AUC ([3]; 800 mg, Session II: single 800 mg dose with RTV) was 98700 ± 38500 ng·h/mL.

In the case of `CC(C)c1nc(CN(C)C(=O)N[C@H](C(=O)N[C@@H](Cc2ccccc2)C[C@H](O)[C@H](Cc2ccccc2)NC(=O)OCc2cncs2)C(C)C)cs1` [ritonavir], the “combination index (CI)” value [1] is reported as 0.66-0.81.

For `Cc1cccc(C)c1OCC(=O)N[C@@H](Cc1ccccc1)[C@@H](O)C[C@H](Cc1ccccc1)NC(=O)[C@H](C(C)C)N1CCCNC1=O` [lopinavir], the “combination index (CI)” value [1] was 0.85-0.95.

For `CC(C)CN(C[C@@H](O)[C@H](Cc1ccccc1)NC(=O)O[C@H]1CCOC1)S(=O)(=O)c1ccc(N)cc1` [amprenavir], the “combination index (CI)” value [1] was 0.65-0.77.

In the case of `CC(C)(C)NC(=O)[C@@H]1C[C@@H]2CCCC[C@@H]2CN1C[C@@H](O)[C@H](Cc1ccccc1)NC(=O)[C@H](CC(N)=O)NC(=O)c1ccc2ccccc2n1` [saquinavir], the “combination index (CI)” value [1] is reported as 0.94-1.0.
